Assay results as given in patent publication US20170030891A1, “BLOOD CONDITION ANALYSIS DEVICE, BLOOD CONDITION ANALYSIS SYSTEM, BLOOD CONDITION ANALYSIS METHOD, AND PROGRAM” (SONY CORPORATION, priority 2014, published 2017).

Legend:
platelet factors = assay: time-dependent changes in real part of complex permittivity of blood samples having different CyD concentrations at 10 MHz; assay type: cell-based
Excerpt: The electrical characteristic measurement device 10 includes a measurement unit that applies a voltage between a pair of electrodes provided in a sample container filled with a blood sample to be evaluated, and measures the electrical characteristics of the blood sample over time at a specific frequency or frequency band. Examples of electrical characteristics measured by the electrical characteristic measurement device 10 include the impedance, conductance, admittance, capacitance, permittivity, conductivity, and phase angle, as well as amounts obtained by converting them into the amounts of electricity. Incidentally, the blood condition analysis system 1 of this embodiment can perform evaluation from at least one kind of these electrical characteristics, but may also utilize two or more kinds of electrical characteristics.
In the measurement step S1, the electrical characteristics of two or more blood samples adjusted from one blood specimen and having different drug types or concentrations are measured over time at a specific frequency or frequency band. At this time, the conditions for the electrical characteristic measurement are not particularly limited, and may be suitably set according to the kind of electrical characteristics and the like within a range where the blood to be evaluated is not deteriorated.
In the analysis step S2, utilizing data of time-dependent changes in the electrical characteristics measured by the electrical characteristic measurement device 10, the influence of the drug or a factor in the blood on the coagulation system or fibrinolysis system of the blood is evaluated by the blood condition analysis device 11. For example, from data of time-dependent changes in the electrical characteristic of each blood sample, parameters conventionally used for the evaluation of the coagulation system or fibrinolysis system of blood are calculated. […]
In addition, for example, in the case where the coagulation system is evaluated, examples of coagulation factors to be evaluated include platelet factors and fibrinogen. […]

platelets = assay: Example 1: complex permittivity in the process of coagulation of blood with CyD or Pefabloc at various concentrations; assay type: cell-based; settings: sample with Pefabloc concentration 0%, FIG. 24; addition of 8 μl of CyD to 180 μl of blood; blood from a healthy individual
Experimental: (§1) Hereinafter, the effects of the present disclosure will be described in detail. In this example, CyD or Pefabloc was added at various concentrations to a blood sample collected from a healthy individual, and changes in the complex permittivity in the process of coagulation were measured.
(§2) As shown in the following Mathematical Formula 1, the clot firmness CF depends on the effective concentration of platelets PLT and the effective concentration of fibrinogen FIB. Incidentally, a, b, and c in the following Mathematical Formula 1 are parameters determined by measurement.
(§3) Here, by applying the analysis method shown in FIG. 8 to the data of a sample having a Pefabloc concentration of 0% shown in FIG. 24, it can be estimated that the CyD concentration at which the contribution of platelets disappears is 3.4 μg/ml (the addition of 8 μl of CyD to 180 μl of blood). As a result, the effective concentration of platelets (142000/μl) can be determined. In a similar manner, the amount of fibrinogen can be determined using the data of a sample having a CyD concentration of 0% shown in FIG. 25.

blood coagulation = assay: complex permittivity at 10 MHz of blood samples having different heparin concentrations; settings: relation to heparin concentration, FIG. 12
Experimental: The blood condition analysis method of this embodiment is not limited to the evaluation criteria and evaluation methods described above. For example, it is also possible that heparin is used as the drug, and the suppressing effect of heparin on blood coagulation is evaluated. FIG. 11 is a diagram showing time-dependent changes in the real part (∈′) of the complex permittivity of blood samples having different heparin concentrations at 10 MHz, and FIG. 12 is a diagram showing the relation between the clotting time determined from the values of ∈′ at 10 MHz shown in FIG. 11 and the heparin concentration. In addition, FIG. 13 is a diagram showing the coagulation curves of blood samples having different heparin concentrations, and FIG. 14 is a diagram showing the relation between the heparin concentration and the difference in clotting time.

fibrinogen [1] = molecular target: T1, fibrinogen (Homo sapiens, UniProt P02675+P02679); assay: coagulation amplitude and coagulation time of blood samples vs fibrinogen inhibitor (Pefabloc) concentration; settings: relation to Pefabloc concentration, FIG. 15A and 15B
T1 construct: from tissue; host or cells: blood sample (donor not described)
Excerpt: Further, by using a fibrinogen inhibitor, such as Pefabloc, as the drug, the influence of fibrinogen can also be evaluated. FIG. 15A is a diagram showing the relation between the fibrinogen inhibitor (Pefabloc) concentration and the coagulation amplitude, while FIG. 15B is a diagram showing the relation with the coagulation time. […] Thus, utilizing this characteristic, the influence of fibrinogen can be evaluated, or the amount of fibrinogen can be estimated.

fibrinogen [2] = molecular target: T1, fibrinogen; assay: Example 1: complex permittivity in the process of coagulation of blood with CyD or Pefabloc at various concentrations; settings: from PFG concentration dependence at CyD concentration 0, FIG. 25; blood from a healthy individual
Experimental: as §1, §2, §3
Then, the effective concentration of platelets PLT can be estimated from data of CyD concentration dependence. In addition, the effective concentration of fibrinogen FIB can be estimated from data of PFG concentration dependence. […]

[3] = test system: fibrinolysis system of the blood; assay: complex permittivity at 10 MHz of blood samples with fibrinolysis system promotor (tPA) and inhibitor (aprotinin); settings: aprotinin added to blood with tPA, 10 MHz, FIG. 10
Experimental: In addition, for example, in the case where the fibrinolysis system is evaluated, examples of coagulation factors to be evaluated include plasminogen and plasmin. In that case, as a drug to be added to the blood sample, an activator or inhibitor of plasminogen or plasmin is usable. FIG. 9 is a diagram showing time-dependent changes in the real part (∈′) of the complex permittivity at 10 MHz of blood samples having different fibrinolysis system promotor (tPA) and fibrinolysis system inhibitor (aprotinin) concentrations.
For the evaluation of the fibrinolysis-system blood, for example, a value obtained by dividing the amplitude after 30 minutes from the time B shown in FIGS. 2A-2B by the amplitude at the time B (LI30: the source of clot firmness after a predetermined period of time from the maximum firmness accompanying fibrinolysis) can be used as an evaluation parameter.

T1 sequence (P02671 20-629 partner limits assumed): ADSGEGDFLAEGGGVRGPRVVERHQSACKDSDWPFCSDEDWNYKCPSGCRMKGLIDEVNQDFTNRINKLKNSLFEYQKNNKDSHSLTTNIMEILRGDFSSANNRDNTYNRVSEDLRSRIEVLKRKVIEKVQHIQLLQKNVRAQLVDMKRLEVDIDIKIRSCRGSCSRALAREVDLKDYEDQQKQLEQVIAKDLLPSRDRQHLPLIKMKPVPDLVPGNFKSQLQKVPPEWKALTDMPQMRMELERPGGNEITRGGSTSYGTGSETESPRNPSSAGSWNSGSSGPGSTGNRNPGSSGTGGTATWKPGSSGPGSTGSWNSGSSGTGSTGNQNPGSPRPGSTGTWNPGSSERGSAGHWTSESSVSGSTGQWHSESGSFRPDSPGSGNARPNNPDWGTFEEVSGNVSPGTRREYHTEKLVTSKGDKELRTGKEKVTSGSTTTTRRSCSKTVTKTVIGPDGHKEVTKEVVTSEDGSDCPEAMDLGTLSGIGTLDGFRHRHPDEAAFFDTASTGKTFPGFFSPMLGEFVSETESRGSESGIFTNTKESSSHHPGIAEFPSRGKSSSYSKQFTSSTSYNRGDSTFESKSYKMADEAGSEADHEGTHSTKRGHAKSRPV
T1 sequence (P02675 31-491): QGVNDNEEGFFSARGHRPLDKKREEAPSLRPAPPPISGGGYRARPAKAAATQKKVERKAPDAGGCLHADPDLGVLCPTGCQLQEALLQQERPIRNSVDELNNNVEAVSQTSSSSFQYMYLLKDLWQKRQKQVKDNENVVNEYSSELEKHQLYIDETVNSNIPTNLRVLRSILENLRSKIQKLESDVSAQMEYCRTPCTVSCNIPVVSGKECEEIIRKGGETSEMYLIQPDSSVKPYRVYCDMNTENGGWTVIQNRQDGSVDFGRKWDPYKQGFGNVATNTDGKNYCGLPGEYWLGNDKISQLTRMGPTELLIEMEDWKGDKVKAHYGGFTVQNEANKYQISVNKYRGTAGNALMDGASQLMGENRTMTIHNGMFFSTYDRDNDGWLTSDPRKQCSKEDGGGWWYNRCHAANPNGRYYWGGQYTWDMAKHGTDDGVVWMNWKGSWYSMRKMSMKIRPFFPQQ
T1 sequence (P02679 27-433 limits assumed): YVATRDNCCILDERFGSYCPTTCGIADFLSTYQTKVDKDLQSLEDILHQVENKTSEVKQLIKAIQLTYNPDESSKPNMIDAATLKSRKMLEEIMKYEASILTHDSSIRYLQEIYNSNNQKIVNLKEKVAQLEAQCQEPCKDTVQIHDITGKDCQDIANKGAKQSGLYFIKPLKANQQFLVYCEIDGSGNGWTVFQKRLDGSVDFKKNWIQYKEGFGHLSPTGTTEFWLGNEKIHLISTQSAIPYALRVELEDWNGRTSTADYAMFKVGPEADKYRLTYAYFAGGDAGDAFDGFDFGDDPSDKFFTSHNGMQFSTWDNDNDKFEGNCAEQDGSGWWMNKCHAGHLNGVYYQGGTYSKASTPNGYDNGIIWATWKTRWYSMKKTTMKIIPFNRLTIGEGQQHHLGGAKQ

C=C1[C@@H](C)[C@H]2[C@H](Cc3ccccc3)NC(=O)[C@]23[C@H](OC(C)=O)/C=C/[C@@](C)(O)C(=O)[C@@H](C)C/C=C/[C@H]3[C@@H]1O [CyD, cytochalasin D]
amount of CyD for inhibiting the platelet factors (platelet factors; blood sample of FIG. 8, number of platelets 136500 per 1 μl): 25 ng per platelet | minimum drug dose to completely suppress the action of platelet factors (platelet factors; from coagulation rate vs CyD concentration (FIG. 8), agrees with coagulation rate of blood sample containing excess CyD): 3.3 µg/mL | coagulation amplitude and coagulation rate determined from the real part of the complex permittivity (platelet factors; relation to CyD concentration, FIG. 7 and FIG. 8): correlated with the CyD concentration | CyD concentration at which the contribution of platelets disappears (platelets): 3.4 µg/mL

heparin
clotting time determined from ∈′ at 10 MHz (blood coagulation): the clotting time increases with an increase in the heparin concentration

H-Gly-Pro-Arg-Pro-OH×AcOH (H-GPRP-OH; also: acetate salt) [Pefabloc, fibrinogen function suppressor]
coagulation amplitude and clotting time (fibrinogen [1]): the coagulation amplitude and the clotting time change with an increase in the fibrinogen inhibitor (Pefabloc) concentration | effective concentration of fibrinogen FIB (equivalent PFG) (fibrinogen [2]): 1000 µg/mL

aprotinin
LI30 (amplitude after 30 minutes from time B divided by amplitude at time B) [3]: turns back to the value of the control blood sample
